Experimental data taken from publication PMC5437278, “Targeting the deubiquitinase STAMBP inhibits NALP7 inflammasome activity” (Nature Communications, 2017).

Biological target: T1, STAMBP (purified, recombinant) (Homo sapiens, UniProt O95630)
T1 construct: commercial purified recombinant STAMBP (R&D Systems E-548B)
T1 sequence (O95630 1-424): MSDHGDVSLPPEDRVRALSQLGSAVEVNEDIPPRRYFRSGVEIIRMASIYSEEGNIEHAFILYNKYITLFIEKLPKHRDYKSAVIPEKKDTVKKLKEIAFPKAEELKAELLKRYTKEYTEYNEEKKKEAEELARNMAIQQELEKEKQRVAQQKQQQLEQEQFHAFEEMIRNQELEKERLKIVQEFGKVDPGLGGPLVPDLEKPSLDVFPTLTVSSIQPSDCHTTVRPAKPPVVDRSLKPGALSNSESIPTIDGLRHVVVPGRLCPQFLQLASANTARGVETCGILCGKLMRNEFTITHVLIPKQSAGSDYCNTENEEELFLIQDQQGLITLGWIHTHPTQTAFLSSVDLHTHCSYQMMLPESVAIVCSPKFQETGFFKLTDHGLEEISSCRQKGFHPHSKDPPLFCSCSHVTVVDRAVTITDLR
Test: in vitro DUB assay, cleavage of K63-linked di-ubiquitin to mono-Ub, immunoblot
Assay type: biochemical
Conditions: 200 nM K63-linked di-Ub, 25 nM STAMBP, pH 7.5, 37 °C, 2 h; competitive

IC50: 330 nM
Substance: BC-1471
